Data as given in patent US10821115B2, “Compounds that inhibit Mcl-1 protein” (priority 2017, dated 2020).
pIC50: −log10 of the molar value.

What follows are molecules tested on human multiple myeloma cell line, OPM-2 (assay: Cell viability assay (OPM-2 10 FBS), CellTiter-Glo). Details: Homo sapiens, OPM-2, 16 h, read-out: OPM-2 10% FBS IC50 IP, OPM-2 cells, 10% FBS, 16 h incubation.
Format: cell-based
Description: Cell viability assay (OPM-2 10 FBS)
The human multiple myeloma cell line, OPM-2, was cultured in complete growth medium containing RPMI 1640 and 10% fetal bovine serum (FBS). Cells were seeded into 384-well plates at 3000 cells/well density in complete growth medium containing 10% FBS, and incubated for 16 h with serially diluted test compounds in a 37° C. incubator with 5% CO2. Cell viability was tested using CellTiter-Glo® assay (Promega, Madison, Wis.) according to the manufacturer recommendations. Luminescence was determined using an EnVision® Multilabel plate reader 25 min after the addition of detection reagent. IC50 values were then calculated with Xlfit using a logistical 4-parameter fit model in GraphPad Prism (GraphPad Software, San Diego, Calif.) or in Genedata Screener® (Genedata, Basel, Switzerland).

Question: `CO[C@@]1(CN2CCN3CCCC[C@@H]3C2)/C=C/C[C@H](C)[C@@H](C)S(=O)(=O)NC(=O)c2ccc3c(c2)N(C[C@@H]2CC[C@H]21)C[C@@]1(CCCc2cc(Cl)ccc21)CO3` [Example 197, (1S,3′R,6′R,7′S,8′E,11′S,12′R)-6-chloro-7′-methoxy-11′,12′-dimethyl-7′-((9aR)-octahydro-2H-pyrido[1,2-a]pyrazin-2-ylmethyl)-3,4-dihydro-2H,15′H-spiro[naphthalene-1,22′-[20]oxa[13]thia[1,14]diazatetracyclo [14.7.2.0~3,6~.0~19,24~]pentacosa[8,16,18,24]tetraen]-15′-one 13′,13′-dioxide] was tested. Which pIC50 did it give?
Answer: 6.89

Question: With `CO[C@@]1(CN2CCN3CCN(S(C)(=O)=O)C[C@@H]3C2)/C=C/C[C@H](C)[C@@H](C)S(=O)(=O)NC(=O)c2ccc3c(c2)N(C[C@@H]2CC[C@H]21)C[C@@]1(CCCc2cc(Cl)ccc21)CO3` [Example 228] as the molecule, how does the pIC50 read?
Answer: 7.03

Question: `CO[C@@]1(CN2CCN(C3CCOCC3)CC2)/C=C/C[C@H](C)[C@@H](C)S(=O)(=O)NC(=O)c2ccc3c(c2)N(C[C@@H]2CC[C@H]21)C[C@@]1(CCCc2cc(Cl)ccc21)CO3` [Example 262, (1S,3′R,6′R,7′S,8′E,11′S,12′R)-6-chloro-7′-methoxy-11′,12′-dimethyl-7′-((4-(tetrahydro-2H-pyran-4-yl)-1-piperazinyl)methyl)-3,4-dihydro-2H,15′H-spiro[naphthalene-1,22′-[20]oxa[13]thia[1,14]diazatetracyclo [14.7.2.0~3,6~.0~19,24~]pentacosa[8,16,18,24]tetraen]-15′-one 13′,13′-dioxide] was tested. Which pIC50 did it give?
Answer: 7.05

Question: `CO[C@@]1(CN2CCC(N3CCOCC3)CC2)/C=C/C[C@H](C)[C@@H](C)S(=O)(=O)NC(=O)c2ccc3c(c2)N(C[C@@H]2CC[C@H]21)C[C@@]1(CCCc2cc(Cl)ccc21)CO3` [Example 263, (1S,3′R,6′R,7′S,8′E,11′S,12′R)-6-chloro-7′-methoxy-11′,12′-dimethyl-7′-((4-(4-morpholinyl)-1-piperidinyl)methyl)-3,4-dihydro-2H,15′H-spiro[naphthalene-1,22′-[20]oxa[13]thia[1,14]diazaetracyclo [14.7.2.0~3,6~.0~19,24~]pentacosa[8,16,18,24]tetraen]-15′-one 13′,13′-dioxide] was tested. Which pIC50 did it give?
Answer: 6.91

Question: With `CO[C@@]1(CN2CCN(CC(=O)O)CC2)/C=C/C[C@H](C)[C@@H](C)S(=O)(=O)NC(=O)c2ccc3c(c2)N(C[C@@H]2CC[C@H]21)C[C@@]1(CCCc2cc(Cl)ccc21)CO3` [Example 270, (4-(((1S,3′R,6′R,7′S,8′E,11′S,12′R)-6-CHLORO-7′-METHOXY-11′,12′-DIMETHYL-13′,13′-DIOXIDO-15′-OXO-3,4-DIHYDRO-2H-SPIRO[NAPHTHALENE-1,22′-[20]OXA[13]THIA[1,14]DIAZATETRACYCLO[14.7.2.0-3,6˜.0˜19,24˜]PENT ACOSA[8,16,18,24]TETRAEN]-7′-YL)METHYL)-1-PIPERAZINYL)ACETIC ACID] as the molecule, how does the pIC50 read?
Answer: 5.31

Question: With `COCC(COC)N1CCN(C[C@]2(OC)/C=C/C[C@H](C)[C@@H](C)S(=O)(=O)NC(=O)c3ccc4c(c3)N(C[C@@H]3CC[C@H]32)C[C@@]2(CCCc3cc(Cl)ccc32)CO4)CC1` [Example 287, (1S,3′R,6′R,7′S,8′E,11′S,12′R)-6-chloro-7′-methoxy-7′-((4-(2-methoxy-1-(methoxymethyl)ethyl)-1-piperazinyl)methyl)-11′,12′-dimethyl-3,4-dihydro-2H,15′H-spiro[naphthalene-1,22′-[20]oxa[13]thia[1,14]diazatetracyclo [14.7.2.0~3,6~.0~19,24~]pentacosa[8,16,18,24]tetraen]-15′-one 13′,13′-dioxide] as the molecule, how does the pIC50 read?
Answer: 7.30

Question: With `COCCN(CCOC)C1CCN(C[C@]2(OC)/C=C/C[C@H](C)[C@@H](C)S(=O)(=O)NC(=O)c3ccc4c(c3)N(C[C@@H]3CC[C@H]32)C[C@@]2(CCCc3cc(Cl)ccc32)CO4)CC1` [Example 308, (1S,3′R,6′R,7′S,8′E,11′S,12′R)-7′-((4-(bis(2-methoxyethyl)amino)-1-piperidinyl)methyl)-6-chloro-7′-methoxy-11′,12′-dimethyl-3,4-dihydro-2H,15′H-spiro[naphthalene-1,22′-[20]oxa[13]thia[1,14]diazatetracyclo [14.7.2.0~3,6~.0~19,24~]pentacosa[8,16,18,24]tetraen]-15′-one 13′,13′-dioxide] as the molecule, how does the pIC50 read?
Answer: 7.15

Question: With `CO[C@@]1(CN2CCN(CC(CO)CO)CC2)/C=C/C[C@H](C)[C@@H](C)S(=O)(=O)NC(=O)c2ccc3c(c2)N(C[C@@H]2CC[C@H]21)C[C@@]1(CCCc2cc(Cl)ccc21)CO3` [Example 310, (1S,3′R,6′R,7′S,8′E,11′S,12′R)-6-chloro-7′-((4-(3-hydroxy-2-(hydroxymethyl)propyl)-1-piperazinyl)methyl)-7′-methoxy-11′,12′-dimethyl-3,4-dihydro-2H,15′H-spiro[naphthalene-1,22′-[20]oxa[13]thia[1,14]diazatetracyclo [14.7.2.0~3,6~.0~19,24~]pentacosa[8,16,18,24]tetraen]-15′-one 13′,13′-dioxide] as the molecule, how does the pIC50 read?
Answer: 6.29

Question: With `CCO[C@@]1(CN2CCN(C3(C)COC3)CC2)/C=C/C[C@H](C)[C@@H](C)S(=O)(=O)NC(=O)c2ccc3c(c2)N(C[C@@H]2CC[C@H]21)C[C@@]1(CCCc2cc(Cl)ccc21)CO3` [Example 311, (1S,3′R,6′R,7′S,8′E,11′S,12′R)-6-chloro-7′-ethoxy-11′,12′-dimethyl-7′-((4-(3-methyl-3-oxetanyl)-1-piperazinyl)methyl)-3,4-dihydro-2H,15′H-spiro[naphthalene-1,22′-[20]oxa[13]thia[1,14]diazatetracyclo [14.7.2.0~3,6~.0~19,24~]pentacosa[8,16,18,24]tetraen]-15′-one 13′,13′-dioxide] as the molecule, how does the pIC50 read?
Answer: 6.44

Question: `CCO[C@@]1(CN2CCC(N(CCOC)CCOC)CC2)/C=C/C[C@H](C)[C@@H](C)S(=O)(=O)NC(=O)c2ccc3c(c2)N(C[C@@H]2CC[C@H]21)C[C@@]1(CCCc2cc(Cl)ccc21)CO3` [Example 312, (1S,3′R,6′R,7′S,8′E,11′S,12′R)-7′-((4-(bis(2-methoxyethyl)amino)-1-piperidinyl)methyl)-6-chloro-7′-ethoxy-11′,12′-dimethyl-3,4-dihydro-2H,15′H-spiro[naphthalene-1,22′-[20]oxa[13]thia[1,14]diazatetracyclo [14.7.2.0~3,6~.0~19,24~]pentacosa[8,16,18,24]tetraen]-15′-one 13′,13′-dioxide] was tested. Which pIC50 did it give?
Answer: 6.39

Question: How did the pIC50 turn out when `CO[C@]1(CN2CCN(C3(C)COC3)CC2)/C=C/C[C@H](C)[C@@H](C)S(=O)(=O)NC(=O)c2ccc3c(c2)N(C[C@@H]2CC[C@H]21)C[C@@]1(CCCc2cc(Cl)ccc21)CO3` [Example 319, (1S,3′R,6′R,7′R,8′E,11′S,12′R)-6-chloro-7′-methoxy-11′,12′-dimethyl-7′-((4-(3-methyl-3-oxetanyl)-1-piperazinyl)methyl)-3,4-dihydro-2H,15′H-spiro[naphthalene-1,22′-[20]oxa[13]thia[1,14]diazatetracyclo [14.7.2.0~3,6~.0~19,24~]pentacosa[8,16,18,24]tetraen]-15′-one 13′,13′-dioxide] was run?
Answer: 7.06

Same assay, conditions: read-out: OPM-2 10% FBS IC50 IP; OPM-2 cells, 10% FBS, 16 h incubation

Question: With `C[C@@H]1[C@@H](C)C/C=C/[C@@](O)(CN2CCN3CCOC[C@@H]3C2)[C@@H]2CC[C@H]2CN2C[C@@]3(CCCc4cc(Cl)ccc43)COc3ccc(cc32)C(=O)NS1(=O)=O` [Example 193, (1S,3′R,6′R,7′S,8′E,11′S,12′R)-6-chloro-7′-((9aS)-hexahydropyrazino[2,1-c][1,4]oxazin-8(1H)-ylmethyl)-7′-hydroxy-11′,12′-dimethyl-3,4-dihydro-2H, 15′H-spiro[naphthalene-1,22′-[20]oxa[13]thia[1,14]diazatetracyclo[14.7.2.0-3,6˜.0˜19,24˜]pentacosa[8,16,18,24]tetraen]-15′-one 13′,13′-dioxide] as the molecule, how does the pIC50 read?
Answer: 7.64

Question: How did the pIC50 turn out when `C[C@@H]1[C@@H](C)C/C=C/[C@](O)(CN2CCN3CCOC[C@@H]3C2)[C@@H]2CC[C@H]2CN2C[C@@]3(CCCc4cc(Cl)ccc43)COc3ccc(cc32)C(=O)NS1(=O)=O` [Example 213, (1 S,3′R,6′R,7′R,8′E,11′S,12′R)-6-chloro-7′-((9aS)-hexahydropyrazino[2,1-c][1,4]oxazin-8(1H)-ylmethyl)-7′-hydroxy-11′,12′-dimethyl-3,4-dihydro-2H, 15′H-spiro[naphthalene-1,22′-[20]oxa[13]thia[1,14]diazatetracyclo[14.7.2.0-3,6˜.0˜19,24˜]pentacosa[8,16,18,24]tetraen]-15′-one 13′,13′-dioxide] was run?
Answer: 6.40

Question: `CO[C@@]1(CN2CCN3CCN(C(C)=O)C[C@@H]3C2)/C=C/C[C@H](C)[C@@H](C)S(=O)(=O)NC(=O)c2ccc3c(c2)N(C[C@@H]2CC[C@H]21)C[C@@]1(CCCc2cc(Cl)ccc21)CO3` [Example 214] was tested. Which pIC50 did it give?
Answer: 7.08

Question: With `CO[C@]1(CN2CCN3CCS(=O)(=O)C[C@@H]3C2)/C=C/C[C@H](C)[C@@H](C)S(=O)(=O)NC(=O)c2ccc3c(c2)N(C[C@@H]2CC[C@H]21)C[C@@]1(CCCc2cc(Cl)ccc21)CO3` [Example 215] as the molecule, how does the pIC50 read?
Answer: 6.97

Question: How did the pIC50 turn out when `CO[C@]1(CN2CCN3CCN(C(C)=O)C[C@@H]3C2)/C=C/C[C@H](C)[C@@H](C)S(=O)(=O)NC(=O)c2ccc3c(c2)N(C[C@@H]2CC[C@H]21)C[C@@]1(CCCc2cc(Cl)ccc21)CO3` [Example 218] was run?
Answer: 7.04

Question: How did the pIC50 turn out when `CO[C@]1(CN2CCN3CCS(=O)(=O)C[C@@H]3C2)/C=C/C[C@H](C)[C@@H](C)S(=O)(=O)NC(=O)c2ccc3c(c2)N(C[C@@H]2CC[C@H]21)C[C@@]1(CCCc2cc(Cl)ccc21)CO3` [Example 219] was run?
Answer: 7.33
